Assay results reported in patent publication US8476251B2, “Skin care compositions comprising substituted diamines” (Conopco, Inc., priority 2010, dated 2013).

Test system: Melanoderm tissue equivalent model MEL-300 containing melanocytes obtained from dark skin individuals
Assay: Melanoderm tissue equivalent model MEL-300, total melanin content (inhibition of melanogenesis)
Assay type: cell-based
Details: 14 days; for inhibition at 10 µM: Melanocyte, 336 h, 10 μM in maintenance medium, total melanin content vs DMSO vehicle control, read-out: Melanoderm (% Reduction at 10 μM); for melanogenesis inhibition (in words): Melanoderm MEL-300, 10 μM
Description: Melanoderm tissue equivalent model MEL-300 (MatTek: Ashland, Mass.) containing melanocytes obtained from dark skin individuals were cultured as per supplier instructions. Components were added to the maintenance medium phase (no topical treatments) at a final concentration of 10 μM for 14 days at which time the experiment was terminated and the tissues assessed for melanin content. Medium and treatments were changed three times per week. DMSO was utilized as the vehicle control and all treatments were performed at least in duplicate.
For quantification of total melanin, each Melanoderm was placed into an individual Eppendorf tube (2 mL) into which 250 μL of Solvable™ tissue solubilizer (Packard Bioscience Co., Cat# 6NE9100) was added. Each tube was vortexed and incubated at 60° C. for 18 hours. Each sample was then centrifuged (5-minutes at 13,000 RPMs) to remove any particulates. 100 or 200 μL of supernatant were transferred to a 96 well microtiter plate and the absorbance read at 490 nm. Total melanin content was calculated from a standard curve using synthetic melanin (Sigma Cat# M8631). Data was analyzed for significance using the t-test in Microsoft Excel to generate p-values (p-values less than 0.01 represent 99% confidence, p values of 0.05 represent 95% confidence both of which are statistically significant).

Compound | inhibition at 10 µM [%] | melanogenesis inhibition (in words)
CN(C)CCN(Cc1ccccc1)CC1CCCCC1 [Compound 3a, N-benzyl-N-(cyclohexylmethyl)-N′,N′-dimethylethane-1,2-diamine] | 51.3 | effective at melanogenesis inhibition
CN(C)CCN(Cc1ccccc1)Cc1ccccc1 [Compound 3b, N,N-dibenzyl-N′,N′-dimethylethane-1,2-diamine] | 39.5 | effective at melanogenesis inhibition
CN(C)CCN(CCc1ccccc1)Cc1ccccc1 [Compound 3c, N-benzyl-N′,N′-dimethyl-N-(2-phenylethyl)ethane-1,2-diamine] | 51.8 | 
CN(C)CCN(Cc1ccccc1)Cc1ccc2ccccc2c1 [Compound 3d, N-benzyl-N′,N′-dimethyl-N-(naphthalen-2-ylmethyl)ethane-1,2-diamine] | 56 | 
Cc1ccccc1CN(CCN(C)C)Cc1ccccc1 [Compound 3e, N-benzyl-N′,N′-dimethyl-N-(2-methylbenzyl)ethane-1,2-diamine] | 46.6 | 
Cc1cccc(CN(CCN(C)C)Cc2ccccc2)c1 [Compound 3f, N-benzyl-N′,N′-dimethyl-N-(3-methylbenzyl)ethane-1,2-diamine] | 51.6 | 
Cc1ccc(CN(CCN(C)C)Cc2ccccc2)cc1 [Compound 3g, N-benzyl-N′,N′-dimethyl-N-(4-methylbenzyl)ethane-1,2-diamine] | 53.2 | 
COc1ccc(CN(CCN(C)C)Cc2ccccc2)cc1 [Compound 3h, N-benzyl-N-(4-methoxybenzyl)-N′,N′-dimethylethane-1,2-diamine] | 48.8 | 
CN(C)CCN(Cc1ccccc1)Cc1ccc(F)cc1 [Compound 3i, N-benzyl-N-(4-fluorobenzyl)-N′,N′-dimethylethane-1,2-diamine] | 47.8 | 
CCN(CCN(C)C)Cc1ccccc1 [Compound 3j, N-benzyl-N-ethyl-N′,N′-dimethylethane-1,2-diamine] | -0.1 | is not
CN(C)CCN(CC1CCCCC1)CC1CCCCC1 [Compound 5a, N,N-bis(cyclohexylmethyl)-N′,N′-dimethylethane-1,2-diamine] | 42.5 | 
COc1ccc(CN(CCN(C)C)Cc2ccc(OC)cc2)cc1 [Compound 5b, N,N-bis(4-methoxybenzyl)-N′,N′-dimethylethane-1,2-diamine] | 48.7 | 
CN(C)CCN(Cc1ccc(F)cc1)Cc1ccc(F)cc1 [Compound 5c, N,N-bis(4-fluorobenzyl)-N′,N′-dimethylethane-1,2-diamine] | 49.3 | 
CCN(CC)CCN(Cc1ccccc1)Cc1ccccc1 [Compound 5d, N,N-dibenzyl-N′,N′-diethylethane-1,2-diamine] | 45.6 | 
c1ccc(CN(CCN2CCCC2)Cc2ccccc2)cc1 [Compound 5e, N,N-dibenzyl-2-(pyrrolidin-1-yl)ethanamine] | 40.6 | 
CN(C)CCCN(Cc1ccccc1)Cc1ccccc1 [Compound 5f, N,N-dibenzyl-N′,N′-dimethylpropane-1,3-diamine] | 50 | 
CN(C)CCN(Cc1ccccc1)C(=O)c1ccccc1 [Compound 7, N-benzyl-N-[2-(dimethylamino)ethyl]benzamide] | 4.4 | is not
CC(c1ccccc1)N(CCN(C)C)Cc1ccccc1 (stereo not shown) [Compound 11, N-benzyl-N′,N′-dimethyl-N-(1-phenylethyl)ethane-1,2-diamine] | 47.8 | 
